In US20260226493A1, “HERBICIDE RESISTANT PLANTS” (SYNGENTA CROP PROTECTION AG, priority 2023, published 2026):

What was measured:
Assay in all cases: BIO3-BIO1 mutant enzyme activity in the presence of herbicide, percentage inhibition (fluorometric DAPA assay)
Format in all cases: biochemical
Details in all cases: read-out: percentage inhibition
[1] = target: T1, Arabidopsis thaliana BIO3-BIO1 (BioDA) mutants (Arabidopsis thaliana, UniProt B0F481, T512R)
T1 construct: with the predicted N-terminal mitochondrial transit peptide removed; 6xHis-tag (N); thrombin cleavage site (N); made in house; host or cells: E. coli BL21 (DE3) bioA
From the text: (§1) A pet-24 plasmid containing a DNA sequence encoding each identified variant mutant of BIO3-BIO1 derived from Arabidopsis thaliana from example 5 above, as shown in Table 13 below and as shown in full in SEQ ID NOs: 15 to 155, codon-optimised for expression in E. coli, with an N-terminal 6×His-tag and thrombin cleavage site and under control of a T7 promoter, and was synthesised by Twist Bioscience, in a similar manner to SEQ ID NO:311. These plasmids were then expressed in E. coli BL21 (DE3) bioA with 50 μg/mL kanamycin and 25 μg/mL chloramphenicol selection. Overnight cultures grown at 37° C. were used to inoculate 8×500 mL AIM in shake flasks at a ratio of 1:100. Cultures were grown at 37° C., 200 rpm for 3.5 hours and then overnight at 20° C. Cells were harvested by centrifugation for 30 minutes at 10 000 g. Cells were stored at −80° C. until extraction. 30 g of cell pellet from was thawed in 120 mL of IMAC buffer A (20 mM HEPES pH7.5, 25 mM imidazole, 500 mM sodium chloride, 0.15 mM pyridoxal phosphate, 0.5 mM TCEP, 1× complete Protease Inhibitor Tablet (Roche)). The resuspension was passed through a cell disrupter at 18 000 PSI and centrifuged at 50 000 g for 25 minutes at 4° C. The His-tagged BIO3-BIO1 protein was purified from the extract supernatant on an AKTA avant chromatography system (Cytiva) using a HisTrap FF column and eluted in IMAC buffer B ((20 mM HEPES pH7.5, 500 mM imidazole, 500 mM sodium chloride, 0.15 mM pyridoxal phosphate, 0.5 mM TCEP) followed by SEC using a HiLoad 26/60 Superdex200 column in SEC buffer (25 mM HEPES pH7.5, 150 mM sodium chloride, 0.15 mM pyridoxal phosphate, 0.5 mM TCEP). Protein concentration was measured and calculated using the absorbance at 280 nm. Extracts were diluted 1 in 4 and 10 uL was analysed by SDS PAGE.
(§2) To measure BIO3-BIO1 mutant enzyme activity in the presence of herbicide, herbicides were incubated with 20 μL of enzyme mix (100 mM EPPS pH 8.6, 0.1 mM pyridoxal phosphate, 0.1 mg/mL BSA, 50 nM BIO3-BIO1 enzyme) for 10 minutes at 20° C. in a well of a 96-well half-area black plate, followed by the addition of 20 μL of substrate mix (final concentration of 100 mM EPPS pH 8.6, 0.1 mM pyridoxal phosphate, 0.1 mg/mL BSA, 100 μM spermidine, 20 μM KAPA, 100 mM NaCO3) and further incubation for 75 minutes at 20° C. The reaction was terminated by the addition of 50 μL of derivatisation mix (final concentration of 250 mM borate NaOH pH 9.4, 3.6 mM o-phthalaldehyde, 7 mM β-mercaptoethanol, 17% (v/v) ethanol, 3.6% (v/v) methanol). The fluorescent product produced by the reaction of DAPA with o-phthalaldehyde and 7 mM β-mercaptoethanol was measured at 470 nm after excitation at 410 nm. The percentage inhibition was calculated as the activity in the presence of one of three concentrations of each herbicide compound A to M (note that the compounds labelled as A to M are identified hereinabove in the relevant section of the description) as a percentage of the activity in DMSO (Table 12 and 13). The percentage activity versus WT was also calculated and is shown in Table 13 and 14 (NT indicates mutation not tested in table 13, note that these mutations are tested at different compound concentrations for compounds L, M and C, and the results are shown in table 14).

[2] = target: T2, Arabidopsis thaliana BIO3-BIO1 (BioDA) mutants (Arabidopsis thaliana, UniProt B0F481, A609V)
T2 construct: with the predicted N-terminal mitochondrial transit peptide removed; 6xHis-tag (N); thrombin cleavage site (N); made in house; host or cells: E. coli BL21 (DE3) bioA
From the text: as §1, §2

[3] = target: T3, Arabidopsis thaliana BIO3-BIO1 (BioDA) mutants (Arabidopsis thaliana, UniProt B0F481, W392G)
T3 construct: with the predicted N-terminal mitochondrial transit peptide removed; 6xHis-tag (N); thrombin cleavage site (N); made in house; host or cells: E. coli BL21 (DE3) bioA
From the text: as §1, §2

[4] = target: T4, Arabidopsis thaliana BIO3-BIO1 (BioDA) mutants (Arabidopsis thaliana, UniProt B0F481, A609T)
T4 construct: with the predicted N-terminal mitochondrial transit peptide removed; 6xHis-tag (N); thrombin cleavage site (N); made in house; host or cells: E. coli BL21 (DE3) bioA
From the text: as §1, §2

[5] = target: T5, Arabidopsis thaliana BIO3-BIO1 (BioDA) mutants (Arabidopsis thaliana, UniProt B0F481, P510A)
T5 construct: with the predicted N-terminal mitochondrial transit peptide removed; 6xHis-tag (N); thrombin cleavage site (N); made in house; host or cells: E. coli BL21 (DE3) bioA
From the text: as §1, §2

[6] = target: T6, Arabidopsis thaliana BIO3-BIO1 (BioDA) mutants (Arabidopsis thaliana, UniProt B0F481, Q350H)
T6 construct: with the predicted N-terminal mitochondrial transit peptide removed; 6xHis-tag (N); thrombin cleavage site (N); made in house; host or cells: E. coli BL21 (DE3) bioA
From the text: as §1, §2

[7] = target: T7, Arabidopsis thaliana BIO3-BIO1 (BioDA) mutants (Arabidopsis thaliana, UniProt B0F481, T512G)
T7 construct: with the predicted N-terminal mitochondrial transit peptide removed; 6xHis-tag (N); thrombin cleavage site (N); made in house; host or cells: E. coli BL21 (DE3) bioA
From the text: as §1, §2

[8] = target: T8, Arabidopsis thaliana BIO3-BIO1 (BioDA) mutants (Arabidopsis thaliana, UniProt B0F481, DEL513-513)
T8 construct: with the predicted N-terminal mitochondrial transit peptide removed; 6xHis-tag (N); thrombin cleavage site (N); made in house; host or cells: E. coli BL21 (DE3) bioA
From the text: as §1, §2

[9] = target: T9, Arabidopsis thaliana BIO3-BIO1 (BioDA) mutants (Arabidopsis thaliana, UniProt B0F481, W392M)
T9 construct: with the predicted N-terminal mitochondrial transit peptide removed; 6xHis-tag (N); thrombin cleavage site (N); made in house; host or cells: E. coli BL21 (DE3) bioA
From the text: as §1, §2

[10] = target: T10, Arabidopsis thaliana BIO3-BIO1 (BioDA) mutants (Arabidopsis thaliana, UniProt B0F481, R790C)
T10 construct: with the predicted N-terminal mitochondrial transit peptide removed; 6xHis-tag (N); thrombin cleavage site (N); made in house; host or cells: E. coli BL21 (DE3) bioA
From the text: as §1, §2

[11] = target: T11, Arabidopsis thaliana BIO3-BIO1 (BioDA) mutants (Arabidopsis thaliana, UniProt B0F481, S509L)
T11 construct: with the predicted N-terminal mitochondrial transit peptide removed; 6xHis-tag (N); thrombin cleavage site (N); made in house; host or cells: E. coli BL21 (DE3) bioA
From the text: as §1, §2

[12] = target: T12, Arabidopsis thaliana BIO3-BIO1 (BioDA) mutants (Arabidopsis thaliana, UniProt B0F481, A609R)
T12 construct: with the predicted N-terminal mitochondrial transit peptide removed; 6xHis-tag (N); thrombin cleavage site (N); made in house; host or cells: E. coli BL21 (DE3) bioA
From the text: as §1, §2

T2 sequence (B0F481 23-833 A609V): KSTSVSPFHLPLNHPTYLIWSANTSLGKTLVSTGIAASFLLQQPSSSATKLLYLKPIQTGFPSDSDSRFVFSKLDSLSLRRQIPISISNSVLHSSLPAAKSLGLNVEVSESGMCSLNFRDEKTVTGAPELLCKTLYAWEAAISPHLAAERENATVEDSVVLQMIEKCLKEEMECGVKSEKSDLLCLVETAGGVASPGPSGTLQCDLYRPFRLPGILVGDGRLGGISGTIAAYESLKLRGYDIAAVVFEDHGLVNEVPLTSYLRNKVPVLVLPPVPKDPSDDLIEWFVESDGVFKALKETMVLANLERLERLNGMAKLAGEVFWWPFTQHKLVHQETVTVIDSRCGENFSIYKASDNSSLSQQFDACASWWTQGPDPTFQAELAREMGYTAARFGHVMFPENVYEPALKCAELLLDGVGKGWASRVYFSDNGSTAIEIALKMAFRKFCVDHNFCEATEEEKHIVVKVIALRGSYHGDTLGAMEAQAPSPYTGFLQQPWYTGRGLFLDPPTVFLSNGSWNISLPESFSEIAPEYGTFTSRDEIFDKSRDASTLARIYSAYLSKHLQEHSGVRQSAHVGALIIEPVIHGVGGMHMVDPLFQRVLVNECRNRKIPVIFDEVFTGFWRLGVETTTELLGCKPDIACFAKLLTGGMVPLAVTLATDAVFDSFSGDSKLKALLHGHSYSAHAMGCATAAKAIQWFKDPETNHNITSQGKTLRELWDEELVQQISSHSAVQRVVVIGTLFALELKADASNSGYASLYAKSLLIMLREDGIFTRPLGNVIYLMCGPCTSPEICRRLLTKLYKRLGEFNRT
T1 sequence (B0F481 23-833 T512R): as the sequence (B0F481 23-833 A609V) above, with T490R, V587A counted along it
T8 sequence (B0F481 other isoform, or with tags, fused parts or gaps DEL513-513): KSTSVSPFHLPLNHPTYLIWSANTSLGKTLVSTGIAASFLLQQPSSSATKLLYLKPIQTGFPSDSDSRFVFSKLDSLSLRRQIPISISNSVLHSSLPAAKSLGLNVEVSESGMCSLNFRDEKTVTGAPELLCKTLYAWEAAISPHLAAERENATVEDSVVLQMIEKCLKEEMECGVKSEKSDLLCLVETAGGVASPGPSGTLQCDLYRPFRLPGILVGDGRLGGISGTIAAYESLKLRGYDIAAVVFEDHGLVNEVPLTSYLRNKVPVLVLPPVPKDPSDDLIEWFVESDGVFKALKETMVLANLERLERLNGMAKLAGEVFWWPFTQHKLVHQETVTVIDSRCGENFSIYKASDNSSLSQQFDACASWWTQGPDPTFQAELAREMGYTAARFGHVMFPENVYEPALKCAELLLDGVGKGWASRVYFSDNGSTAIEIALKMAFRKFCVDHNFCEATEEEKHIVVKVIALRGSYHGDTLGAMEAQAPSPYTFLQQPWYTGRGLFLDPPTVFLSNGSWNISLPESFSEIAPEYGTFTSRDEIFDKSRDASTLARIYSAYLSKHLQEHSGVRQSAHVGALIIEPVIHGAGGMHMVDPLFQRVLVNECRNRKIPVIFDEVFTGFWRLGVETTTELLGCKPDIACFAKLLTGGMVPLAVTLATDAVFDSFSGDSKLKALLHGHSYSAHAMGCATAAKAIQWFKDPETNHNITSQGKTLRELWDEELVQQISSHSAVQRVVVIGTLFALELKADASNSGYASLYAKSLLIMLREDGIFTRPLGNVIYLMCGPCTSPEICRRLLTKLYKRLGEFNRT
T5 sequence (B0F481 23-833 P510A): as the sequence (B0F481 23-833 A609V) above, with P488A, V587A counted along it
T3 sequence (B0F481 23-833 W392G): as the sequence (B0F481 23-833 A609V) above, with W370G, V587A counted along it
T7 sequence (B0F481 23-833 T512G): as the sequence (B0F481 23-833 A609V) above, with T490G, V587A counted along it
T9 sequence (B0F481 23-833 W392M): as the sequence (B0F481 23-833 A609V) above, with W370M, V587A counted along it
T11 sequence (B0F481 23-833 S509L): as the sequence (B0F481 23-833 A609V) above, with S487L, V587A counted along it
T10 sequence (B0F481 23-833 R790C): as the sequence (B0F481 23-833 A609V) above, with V587A, R768C counted along it
T12 sequence (B0F481 23-833 A609R): as the sequence (B0F481 23-833 A609V) above, with V587R counted along it
T4 sequence (B0F481 23-833 A609T): as the sequence (B0F481 23-833 A609V) above, with V587T counted along it
T6 sequence (B0F481 23-833 Q350H): as the sequence (B0F481 23-833 A609V) above, with Q328H, V587A counted along it

CCn1c(C)c(-c2ccc(F)cc2F)c(=O)c(C(=O)O)c1-c1ccc(Cl)c(Cl)c1 [Compound C, 2-(3,4-dichlorophenyl)-5-(2,4-difluorophenyl)-1-ethyl-6-methyl-4-oxo-pyridine-3-carboxylic acid]
inhibition at 0.2 µM [1]: 74% | inhibition at 1 µM [1]: 95% | inhibition at 5 µM [1]: 99% | inhibition at 0.2 µM [2]: 0% | inhibition at 1 µM [2]: 11% | inhibition at 5 µM [2]: 58% | inhibition at 0.2 µM [3]: 0% | inhibition at 1 µM [3]: 20% | inhibition at 5 µM [3]: 69% | inhibition at 0.2 µM [4]: 12% | inhibition at 1 µM [4]: 37% | inhibition at 5 µM [4]: 64% | inhibition at 0.2 µM [5]: 0% | inhibition at 1 µM [5]: 28% | inhibition at 5 µM [5]: 70% | inhibition at 0.2 µM [6]: 0% | inhibition at 1 µM [6]: 2% | inhibition at 5 µM [6]: 25% | inhibition at 0.2 µM [7]: 17% | inhibition at 1 µM [7]: 57% | inhibition at 5 µM [7]: 92% | inhibition at 0.2 µM [8]: 69% | inhibition at 1 µM [8]: 90% | inhibition at 5 µM [8]: 98% | inhibition at 0.2 µM [9]: 10% | inhibition at 1 µM [9]: 30% | inhibition at 5 µM [9]: 56% | inhibition at 0.2 µM [10]: 0% | inhibition at 1 µM [10]: 11% | inhibition at 5 µM [10]: 62% | inhibition at 0.2 µM [11]: 24% | inhibition at 1 µM [11]: 85% | inhibition at 5 µM [11]: 99% | inhibition at 0.2 µM [12]: 63% | inhibition at 1 µM [12]: 68% | inhibition at 5 µM [12]: 71%

CCn1c(Cn2ccc(C(F)(F)F)n2)cc(=O)c(C(=O)O)c1-c1ccc(Cl)c(Cl)c1 [Compound L, 2-(3,4-dichlorophenyl)-1-ethyl-4-oxo-6-[[3-(trifluoromethyl)pyrazol-1-yl]methyl]pyridine-3-carboxylic acid]
inhibition at 0.01 µM [2]: 0% | inhibition at 0.075 µM [2]: 0% | inhibition at 0.5 µM [2]: 0% | inhibition at 0.01 µM [4]: 10% | inhibition at 0.075 µM [4]: 34% | inhibition at 0.5 µM [4]: 12% | inhibition at 0.01 µM [5]: 0% | inhibition at 0.075 µM [5]: 0% | inhibition at 0.5 µM [5]: 63% | inhibition at 0.01 µM [6]: 0% | inhibition at 0.075 µM [6]: 16% | inhibition at 0.5 µM [6]: 38% | inhibition at 0.01 µM [8]: 31% | inhibition at 0.075 µM [8]: 30% | inhibition at 0.5 µM [8]: 54% | inhibition at 0.01 µM [12]: 0% | inhibition at 0.075 µM [12]: 51% | inhibition at 0.5 µM [12]: 65%

CCOC(=O)c1nn(-c2ccc3c(c2)OC(F)(F)C(F)(F)O3)c2cccc(C(C)=O)c2c1=O [Compound A, ethyl 5-acetyl-4-oxo-1-(2,2,3,3-tetrafluoro-1,4-benzodioxin-6-yl)cinnoline-3-carboxylate]
inhibition at 1 µM [1]: 82% | inhibition at 1 µM [2]: 5% | inhibition at 1 µM [3]: 56% | inhibition at 1 µM [4]: 0% | inhibition at 1 µM [5]: 4% | inhibition at 1 µM [6]: 23% | inhibition at 1 µM [7]: 5% | inhibition at 1 µM [8]: 29% | inhibition at 1 µM [9]: 14% | inhibition at 1 µM [10]: 2% | inhibition at 1 µM [11]: 6% | inhibition at 1 µM [12]: 54%

CCn1c(-c2ccc(Cl)c(Cl)c2)c(C(=O)O)c(=O)c2cc(F)ccc21 [Compound M, 2-(3,4-dichlorophenyl)-1-ethyl-6-fluoro-4-oxo-quinoline-3-carboxylic acid]
inhibition at 0.2 µM [1]: 81% | inhibition at 1 µM [1]: 95% | inhibition at 5 µM [1]: 99% | inhibition at 0.2 µM [2]: 22% | inhibition at 1 µM [2]: 44% | inhibition at 5 µM [2]: 75% | inhibition at 0.2 µM [3]: 0% | inhibition at 1 µM [3]: 7% | inhibition at 5 µM [3]: 12% | inhibition at 0.2 µM [4]: 8% | inhibition at 1 µM [4]: 39% | inhibition at 5 µM [4]: 67% | inhibition at 0.2 µM [5]: 0% | inhibition at 1 µM [5]: 14% | inhibition at 5 µM [5]: 51% | inhibition at 0.2 µM [6]: 0% | inhibition at 1 µM [6]: 8% | inhibition at 5 µM [6]: 20% | inhibition at 0.2 µM [7]: 9% | inhibition at 1 µM [7]: 39% | inhibition at 5 µM [7]: 77% | inhibition at 0.2 µM [8]: 60% | inhibition at 1 µM [8]: 83% | inhibition at 5 µM [8]: 95% | inhibition at 0.2 µM [9]: 0% | inhibition at 1 µM [9]: 0% | inhibition at 5 µM [9]: 22% | inhibition at 0.2 µM [10]: 0% | inhibition at 1 µM [10]: 9% | inhibition at 5 µM [10]: 49% | inhibition at 0.2 µM [11]: 19% | inhibition at 1 µM [11]: 68% | inhibition at 5 µM [11]: 94% | inhibition at 0.2 µM [12]: 52% | inhibition at 1 µM [12]: 53% | inhibition at 5 µM [12]: 88%
